These results are taken from patent US20200329698A1, “COMPOSITIONS FOR ORGAN GRAFT PRESERVATION AND METHODS OF USE” (Nobilis Therapeutics, Inc., priority 2019, published 2020).

In one experiment the test system is ex-vivo rat kidney. The following applies: cited from earlier work.
Experiment [1] concerns Fischer rats renal grafts from cardiac arrest donation. Description: DCD renal graft preservation with xenon or argon with or without dexmedetomidine, then transplantation. The format is in vivo, rat. The note with it: UW saturated with 70% gas, with or without Dex 0.1 nM; day 8 after transplantation. How it is done:
Briefly, after intravenous heparinization (300 U) in 1 ml saline via the penile vein under 2% isoflurane anaesthesia, cardiac arrest was induced by cervical dislocation (schedule 1 killing). The cessation of the heart beat was observed within 3-5 minutes and donor animals were kept for 40 minutes on a 37° C. pad.
This protocol was obtained from our pilot studies and the both graft injury and a therapeutic window can be achieved. The preserving solution was saturated with 70% nitrogen, xenon or argon gas, combined with or without dexmedetomidine 0.1 nM [32]. […] Macrophage infiltration and renal fibrosis were attenuated by the treatments on day 16 after surgery (FIGS. 12A-12D).
With respect to FIGS. 10A-10D, Fischer rats renal grafts from cardiac arrest donation were stored with UW preserving solution at 4° C., saturated with nitrogen or xenon or argon gas (70% N2 or Xe or Ar and 5% CO2 balanced with O2 supplemented with Dex), machine perfused for 4 hours and stored until 24 hours. Normal kidney graft serves as naive control (NC), grafts treated with preserving solution only served as sham, and the grafts were then transplanted into Lewis recipient and finally harvested day 8 after transplantation. (FIG. 10A) Renal morphology were assessed by H and E staining (n=4-6) and (FIG. 10B) evaluated by the injury scoring system. (FIG. 10C) TUNEL staining of renal tubules in renal cortex. […]

Experiment [2] deals with ex vivo renal grafts from brain death or cardiac arrest donors. Put plainly: Rat hypothermic machine perfusion model. The following applies: exposure of ex vivo grafts prior to engraftment.
A further experiment deals with kidney. The following applies: in vivo; cited from earlier work.
The subject of experiment [3] is isografts, weak immune-allografts and strong immuno-allografts. The following applies: xenon to living donor before graft retrieval or to recipient after engraftment; cited from earlier work.
Experiment [4] has as its system Lewis rat lung grafts extracted after cardiac death. Put plainly: DCD lung graft stored in Dex-saturated UW after donor treatment with Nrf-2 siRNA or atipamezole. The following applies: given to donor before extraction. Here is the method: Nrf-2 siRNA or scrambled siRNAs (negative control) (QIAGEN®) were dissolved in siRNA suspension buffer and further diluted in RNase-free PBS before use. siRNA targeting rat Nrf-2 (sc-37030, SANTA CRUZ BIOTECHNOLOGY®, USA) was administered through hydrodynamic tail vein injection. Nrf-2 or scrambled siRNA ([…] in 10 ml of PBS) was rapidly injected (within 30 s) via a tail vein under anaesthesia and allow to recover for 24 h before the experiment. Atipamezole (α2-adrenergic antagonist, SIGMA-ALDRICH®, St. Louis, Mo., USA, 250 μg/kg, i.p.) was administered 10 minutes graft extraction.
In order to further investigate the mechanisms underlying the protective effects of dexmedetomidine on lung grafts, Nrf-2 siRNA and atipamezole treatment was administered donor before lung grafts extraction. The grafts were subsequently stored in Dex-saturated UW solution. TLR-4 and RIP3 immunofluorescent labelling was performed in lung grafts, with and without Nrf-2 siRNA (FIG. 9A), and with and without atipamezole treatment (FIG. 9B). […] 3-nitrotyrosine and 4-hydroxynonenal immunofluorescent labelling was performed in lung alveolar cells at CI 16 h, with and without Nrf-2 siRNA or with and without atipamezole treatment (FIGS. 9E and 9F) at CI 16 h. […] Together, these findings indicate that upregulation of the Nrf-2 and α2 adrenergic pathways are both critical to the protective effects of Dex on lung grafts. […] With respect to FIGS. 9A-9K, Lewis rat lung grafts were extracted after cardiac death and stored in 4° C. UW solution saturated with Dex (0.1 nM) or without Dex (Vehicle) for 16 hours (lung graft cold ischemia CIO 16 hr). Nrf-2 siRNA or atipamezole was given to the donor before graft extracting. Dual labelling of Rip-3 (red) and TLR-4 (green) in lung tissue after (FIG. 9A) SiRNA treatment or (FIG. 9B) atipamezole. Fluorescent intensity of (FIG. 9C) RIPK3 and (FIG. 9D) TLR-4 in lung tissue. The expression of 3-nitrotyrosine and 4-hydroxynonenal was assessed with immunofluorescent labelling after (FIG. 9E) SiRNA treatment or (FIG. 9F) Atipamezole. Fluorescent intensity of (FIG. 9G) 3-nitrotyrosine and (FIG. 9H) 4-hydroxynonenal. Nuclei were counterstained with 4′,6-diamidino-2-phenylindole (DAPI) (blue). (FIGS. 9I and 9K) Histology (haematoxylin and eosin staining) of the lung graft and injury score. (FIG. 9J) HMGB-1 in lung graft tissue, were assessed by ELISA. Scale bar: 50 μm. […] NC: naïve control, rCI: renal graft cold ischemia. HMGB, high mobility group box 1 protein; CI, cold ischaemia; NC, naïve control; TLR-4, toll-like receptor 4.

Experiment [5] deals with renal grafts from live donor. The following applies: preserving solution saturated with argon; cited from earlier work.
The subject of a further experiment is brain. The following applies: 70% argon; cited from earlier work.
Where [6] appears, read: ice-cold Soltran saturated with 70% Xe, 24 hrs, vs 70% N2.

SMILES strings stand for the structures.

In the case of `[Xe]` [xenon], in the experiment with ex-vivo rat kidney (after engraftment), the delayed graft function result was “reduced” and the renal inflammation result was “reduced”. In the experiment on ex-vivo rat kidney (day 8 after surgery), the fibrosis result is “significantly reduced” and the macrophage infiltration result was “significantly reduced”. In addition, in the experiment with ex-vivo rat kidney (setting [6]), the “expression of Bcl-2” value is given as “enhanced expression” and the “expression of HSP-70” value is on record as “enhanced expression”. Further, in the experiment with ex-vivo rat kidney (twenty-four hrs after engraftment), the tubular cell death entry was “significantly decreased”. Moreover, the “morphological structure of the ex-vivo rat kidney” value with ex-vivo rat kidney (xenon-containing Soltran solution) was “well preserved”. In addition, the “renal architecture during prolonged cold preservation (H&E injury score, TUNEL)” value in experiment [1] was “preserved the renal architrave”. The “organ graft injury, histologically and functionally” value in experiment [2] is given as “prevent organ graft injury”. Besides, the “kidney warm ischemic injury” value with kidney is listed as “protect against kidney warm ischemic injury”. Also, in experiment [3], the early graft injury result was “protected against early graft injury” and the graft survival result was “prolonged graft survival”.

On to `CCC1(c2cnc[nH]2)Cc2ccccc2C1` [atipamezole, Atipamezole], for which, in experiment [4] (CI 16 h), the “3-nitrotyrosine expression (fluorescent intensity)” value is recorded as “significant increase” and the “4-hydroxynonenal expression (fluorescent intensity)” value is “significant increase”. Besides, in experiment [4] (CI 16 hr), the “HMGB-1 expression in lung graft tissue (ELISA)” value was “significantly increased”, the “expression of RIP3 (fluorescent intensity)” value is “enhanced expression”, the lung injury scoring entry is given as “significant increase” and the “lung morphology (H&E)” value is given as “deteriorated significantly”. Moreover, the “expression of TLR-4 (fluorescent intensity)” value in experiment [4] (CI 16 hr, p<0.01) is “enhanced expression”.

As to `[Ar]` [argon], in experiment [1], the “renal architecture during prolonged cold preservation (H&E injury score, TUNEL)” value was “preserved the renal architrave”. In addition, in experiment [2], the “organ graft injury, histologically and functionally” value is recorded as “prevent organ graft injury”. Further, the “preservation of renal grafts against hypothermic-ischemic injury” value in experiment [5] was “superior in preserving renal grafts”. Moreover, the neuroprotection result in the experiment with brain is “neuro-protective”.
